{"source": "ChEMBL document CHEMBL5634141", "about": "(Eur J Med Chem, 2023)", "key": {"MIA PaCa-2 [1]": {"system": "MIA PaCa-2", "assay": "Inhibition of colony formation in human MIA PaCa-2 cells expressing KRAS G12C mutant assessed as reduction in cell number at 30 nM incubated for 14 days in presence of AZD4573 by crystal violet staining based analysis", "type": "functional", "conditions": "time 14.0 day"}, "MIA PaCa-2 [2]": {"system": "MIA PaCa-2", "assay": "Antiproliferative activity against human MIA PaCa-2 cells expressing KRAS G12C mutant assessed as relative cell viability at 30 nM incubated for 72 hrs in presence of selumetinib by CCK-8 assay", "type": "functional", "conditions": "read-out: Activity"}, "[3]": {"system": "von Hippel-Lindau disease tumor suppressor/GTPase KRas (Homo sapiens), P01116+P40337 [G12C]", "assay": "PROTAC activity at VHL/KRAS G12C mutant in human NCI-H358 cells assessed as induction of protein degradation at 100 nM preincubated with MLN4924 for 6 hrs followed by compound addition and measured after 48 hrs by Western blotting analysis", "type": "cell-based"}, "NCI-H23 [4]": {"system": "NCI-H23", "assay": "Antiproliferative activity against human NCI-H23 cells expressing KRAS G12C mutant assessed as relative cell viability at 30 nM incubated for 72 hrs in presence of selumetinib by CCK-8 assay", "type": "functional", "conditions": "read-out: Activity"}, "NCI-H358 [5]": {"system": "NCI-H358", "assay": "Induction of apoptosis in human NCI-H358 cells assessed as early apoptotic cells at 100 nM incubated for 48 hrs by Annexin V-FITC staining based flow cytometry analysis (reference value: 1.60 %)", "type": "functional"}, "NCI-H23 [6]": {"system": "NCI-H23", "assay": "Antiproliferative activity against human NCI-H23 cells expressing KRAS G12C mutant assessed as relative cell viability at 30 nM incubated for 72 hrs in presence of naporafenib by CCK-8 assay", "type": "functional", "conditions": "read-out: Activity"}, "HepG2": {"system": "HepG2", "assay": "Antiproliferative activity against human HepG2 cells expressing KRAS assessed as inhibition of cell growth incubated for 72 hrs by CCK-8 assay", "type": "functional, cell-based", "conditions": "HepG2, 72 h"}, "SW837 [7]": {"system": "SW837", "assay": "Antiproliferative activity against human SW837 cells expressing KRAS G12C mutant assessed as relative cell viability at 30 nM incubated for 72 hrs by CCK-8 assay", "type": "functional", "conditions": "read-out: Activity"}, "[8]": {"assay": "AUC (0 to infinity) in ICR mouse at 30 mg/kg, ip measured after 24 hrs by LC-MS/MS analysis", "type": "ADME, organism-based", "conditions": "in vivo"}, "[9]": {"system": "von Hippel-Lindau disease tumor suppressor/GTPase KRas (Homo sapiens), P01116+P40337 [G12C]", "assay": "Protac activity at VHL/KRAS G12C mutant in human MIA PaCa-2 cells assessed as induction of protein degradation in presence of VH032 by Western blot analysis", "type": "cell-based"}, "[10]": {"system": "von Hippel-Lindau disease tumor suppressor/GTPase KRas (Homo sapiens), P01116+P40337 [G12C]", "assay": "PROTAC activity at VHL/KRAS G12C mutant in human NCI-H358 cells assessed as induction of protein degradation at 300 nM incubated for 24 hrs by Western blotting analysis relative to control", "type": "cell-based"}, "[11]": {"system": "von Hippel-Lindau disease tumor suppressor/GTPase KRas (Homo sapiens), P01116+P40337 [G12C]", "assay": "PROTAC activity at VHL/KRAS G12C mutant in human NCI-H358 cells assessed as inhibition of ERK phosphorylation incubated for 48 hrs by Western blotting analysis", "type": "cell-based", "conditions": "dose 10-10000 nM"}, "MIA PaCa-2 [12]": {"system": "MIA PaCa-2", "assay": "Antiproliferative activity against human MIA PaCa-2 cells expressing KRAS G12C mutant assessed as reduction of cell growth by measuring fold decrease in IC50 incubated for 72 hrs in presence of Linsitinib by CCK-8 assay", "type": "functional"}, "MIA PaCa-2 [13]": {"system": "MIA PaCa-2", "assay": "Antitumor activity against human MIA PaCa-2 cells xenografted in BALB/c nude mouse assessed as tumor growth inhibition at 30 mg/kg, ip measured after 8 days relative to control", "type": "functional", "conditions": "MIA PaCa-2, 192 h, time 8 day, read-out: TGI"}, "[14]": {"assay": "Clearance in ICR mouse at 2 mg/kg, iv measured after 24 hrs by LC-MS/MS analysis", "type": "ADME, organism-based", "conditions": "in vivo"}, "NCI-H358 [15]": {"system": "NCI-H358", "assay": "Synergistic antiproliferative activity against human NCI-H358 cells expressing KRAS G12C mutant assessed as combination index at 30 nM incubated for 72 hrs in presence of infigratinib by CCK-8 assay", "type": "functional"}, "[16]": {"system": "von Hippel-Lindau disease tumor suppressor/GTPase KRas (Homo sapiens), P01116+P40337 [G12C]", "assay": "PROTAC activity at VHL/KRAS G12C mutant in human MIA PaCa-2 cells assessed as induction of protein degradation at 300 nM incubated for 6 hrs by Western blotting analysis relative to control", "type": "cell-based"}, "MIA PaCa-2 [17]": {"system": "MIA PaCa-2", "assay": "Antiproliferative activity against human MIA PaCa-2 cells expressing KRAS G12C mutant assessed as relative cell viability at 30 nM incubated for 72 hrs in presence of MK-2206 by CCK-8 assay", "type": "functional", "conditions": "read-out: Activity"}, "MIA PaCa-2 [18]": {"system": "MIA PaCa-2", "assay": "Induction of apoptosis in human MIA PaCa-2 cells assessed as viable cells at 300 nM incubated for 48 hrs by Annexin V-FITC staining based flow cytometry analysis (reference value: 91.5 %)", "type": "functional", "conditions": "read-out: Activity"}, "[19]": {"system": "von Hippel-Lindau disease tumor suppressor/GTPase KRas (Homo sapiens), P01116+P40337 [G12C]", "assay": "PROTAC activity at VHL/KRAS G12C mutant in human MIA PaCa-2 cells assessed as induction of protein degradation at 100 nM incubated for 48 hrs followed by compound washout by Western blotting analysis", "type": "cell-based"}, "NCI-H358 [20]": {"system": "NCI-H358", "assay": "Inhibition of colony formation in human NCI-H358 cells expressing KRAS G12C mutant assessed as reduction in cell number at 30 nM incubated for 14 days in presence of linsitinib by crystal violet staining based analysis", "type": "functional", "conditions": "time 14.0 day"}, "MIA PaCa-2 [21]": {"system": "MIA PaCa-2", "assay": "Induction of apoptosis in human MIA PaCa-2 cells assessed as late apoptotic cells at 100 nM incubated for 48 hrs by Annexin V-FITC staining based flow cytometry analysis (reference value: 5.69 %)", "type": "functional"}, "MIA PaCa-2 [22]": {"system": "MIA PaCa-2", "assay": "Induction of apoptosis in human MIA PaCa-2 cells assessed as early apoptotic cells at 300 nM incubated for 48 hrs by Annexin V-FITC staining based flow cytometry analysis (reference value: 1.55 %)", "type": "functional"}, "MIA PaCa-2 [23]": {"system": "MIA PaCa-2", "assay": "Induction of apoptosis in human MIA PaCa-2 cells assessed as necrotic cells at 100 nM incubated for 48 hrs by Annexin V-FITC staining based flow cytometry analysis (reference value: 1.25 %)", "type": "functional"}, "NCI-H358 [24]": {"system": "NCI-H358", "assay": "Antiproliferative activity against human NCI-H358 cells expressing KRAS G12C mutant assessed as reduction of cell growth by measuring fold decrease in IC50 incubated for 72 hrs in presence of Linsitinib by CCK-8 assay", "type": "functional"}, "NCI-H358 [25]": {"system": "NCI-H358", "assay": "Synergistic antiproliferative activity against human NCI-H358 cells expressing KRAS G12C mutant assessed as combination index at 30 nM incubated for 72 hrs in presence of naporafenib by CCK-8 assay", "type": "functional"}, "Calu-1": {"system": "Calu-1", "assay": "Antiproliferative activity against human Calu-1 cells expressing KRAS G12C mutant assessed as relative cell viability at 30 nM incubated for 72 hrs in presence of naporafenib by CCK-8 assay", "type": "functional", "conditions": "read-out: Activity"}, "[26]": {"system": "von Hippel-Lindau disease tumor suppressor/GTPase KRas (Homo sapiens), P01116+P40337 [G12C]", "assay": "PROTAC activity at VHL/KRAS G12C mutant in human NCI-H358 cells assessed as induction of protein degradation at 100 nM incubated for 1 to 8 days by Western blotting analysis", "type": "cell-based", "conditions": "time 1-8 day"}, "MIA PaCa-2 [27]": {"system": "MIA PaCa-2", "assay": "Antitumor activity against human MIA PaCa-2 cells xenografted in BALB/c nude mouse assessed as reduction in number of tumor foci at 10 to 30 mg/kg, ip administered for 16 days by hematoxylin and eosin staining based analysis", "type": "functional, organism-based", "conditions": "dose 10-30 mg/kg, time 16.0 day"}, "SW837 [28]": {"system": "SW837", "assay": "Antiproliferative activity against human SW837 cells expressing KRAS G12C mutant assessed as relative cell viability at 30 nM incubated for 72 hrs in presence of naporafenib by CCK-8 assay", "type": "functional", "conditions": "read-out: Activity"}, "NCI-H358 [29]": {"system": "NCI-H358", "assay": "Antiproliferative activity against human NCI-H358 cells expressing KRAS G12C mutant assessed as relative cell viability at 30 nM incubated for 72 hrs in presence of MK-2206 by CCK-8 assay", "type": "functional", "conditions": "read-out: Activity"}}, "note": "Active and inactive are the calls of the source. The rule behind the calls is not given here.", "data": [{"smiles": "C=CC(=O)N1CCN(c2nc(=O)n(-c3c(C)ccnc3C(C)C)c3nc(-c4c(F)cccc4OCC4CCN(CCCC(=O)N[C@H](C(=O)N5C[C@H](O)C[C@H]5C(=O)NCc5ccc(-c6scnc6C)cc5)C(C)(C)C)CC4)c(F)cc23)[C@@H](C)C1", "values": [{"measurement": "inhibition", "setting": "MIA PaCa-2 [1]", "result": "Active"}, {"measurement": "viability at 0.03 µM", "setting": "MIA PaCa-2 [2]", "result": 0.1, "unit": "%"}, {"measurement": "Activity", "setting": "[3]", "result": "inactive"}, {"measurement": "viability at 0.03 µM", "setting": "NCI-H23 [4]", "result": 0.24, "unit": "%"}, {"measurement": "Activity", "setting": "NCI-H358 [5]", "result": 2.94, "unit": "%"}, {"measurement": "viability at 0.03 µM", "setting": "NCI-H23 [6]", "result": 0.34, "unit": "%"}, {"measurement": "IC50", "setting": "HepG2", "result": "> 10", "unit": "µM"}, {"measurement": "viability at 0.03 µM", "setting": "SW837 [7]", "result": 0.77, "unit": "%"}, {"measurement": "AUC(0-inf)", "setting": "[8]", "result": 21100, "unit": "ng·h/mL"}, {"measurement": "Activity", "setting": "[9]", "result": "inactive"}, {"measurement": "Activity", "setting": "[10]", "result": 100, "unit": "%"}, {"measurement": "Activity", "setting": "[11]", "result": "Dose-Dependent Effect"}, {"measurement": "fold change (FC)", "setting": "MIA PaCa-2 [12]", "result": "~3"}, {"measurement": "inhibition in vivo at 30 mg/kg", "setting": "MIA PaCa-2 [13]", "result": "> 100", "unit": "%"}, {"measurement": "clearance", "setting": "[14]", "result": 84.2, "unit": "mL/min/kg"}, {"measurement": "CI", "setting": "NCI-H358 [15]", "result": "<1"}, {"measurement": "Activity", "setting": "[16]", "result": 50, "unit": "%"}, {"measurement": "viability at 0.03 µM", "setting": "MIA PaCa-2 [17]", "result": 0.24, "unit": "%"}, {"measurement": "viability at 0.3 µM", "setting": "MIA PaCa-2 [18]", "result": 66.4, "unit": "%"}, {"measurement": "Activity", "setting": "[19]", "result": "Active"}, {"measurement": "inhibition", "setting": "NCI-H358 [20]", "result": "Active"}, {"measurement": "Activity", "setting": "MIA PaCa-2 [21]", "result": 13.4, "unit": "%"}, {"measurement": "Activity", "setting": "MIA PaCa-2 [22]", "result": 9.58, "unit": "%"}, {"measurement": "Activity", "setting": "MIA PaCa-2 [23]", "result": 4.09, "unit": "%"}, {"measurement": "fold change (FC)", "setting": "NCI-H358 [24]", "result": "~4"}, {"measurement": "CI", "setting": "NCI-H358 [25]", "result": "<1"}, {"measurement": "viability at 0.03 µM", "setting": "Calu-1", "result": 0.44, "unit": "%"}, {"measurement": "Activity", "setting": "[26]", "result": "Active"}, {"measurement": "Activity", "setting": "MIA PaCa-2 [27]", "result": "Active"}, {"measurement": "viability at 0.03 µM", "setting": "SW837 [28]", "result": 0.32, "unit": "%"}, {"measurement": "viability at 0.03 µM", "setting": "NCI-H358 [29]", "result": 0.36, "unit": "%"}]}]}
